Test results reported in patent US6790836B2, “Process for preparing indolopyrrolocarbazole derivatives, intermediates therefor, and preparation process of the intermediates” (Banyu Pharmaceutical Co., Ltd., priority 2000, dated 2004).

target: T1, topoisomerase I (Homo sapiens, UniProt P11387); test: Topoisomerase I-inhibiting activity; type: biochemical; conditions: concentration of a compound needed to inhibit topoisomerase I activity by 50%
T1 sequence (P11387 1-765): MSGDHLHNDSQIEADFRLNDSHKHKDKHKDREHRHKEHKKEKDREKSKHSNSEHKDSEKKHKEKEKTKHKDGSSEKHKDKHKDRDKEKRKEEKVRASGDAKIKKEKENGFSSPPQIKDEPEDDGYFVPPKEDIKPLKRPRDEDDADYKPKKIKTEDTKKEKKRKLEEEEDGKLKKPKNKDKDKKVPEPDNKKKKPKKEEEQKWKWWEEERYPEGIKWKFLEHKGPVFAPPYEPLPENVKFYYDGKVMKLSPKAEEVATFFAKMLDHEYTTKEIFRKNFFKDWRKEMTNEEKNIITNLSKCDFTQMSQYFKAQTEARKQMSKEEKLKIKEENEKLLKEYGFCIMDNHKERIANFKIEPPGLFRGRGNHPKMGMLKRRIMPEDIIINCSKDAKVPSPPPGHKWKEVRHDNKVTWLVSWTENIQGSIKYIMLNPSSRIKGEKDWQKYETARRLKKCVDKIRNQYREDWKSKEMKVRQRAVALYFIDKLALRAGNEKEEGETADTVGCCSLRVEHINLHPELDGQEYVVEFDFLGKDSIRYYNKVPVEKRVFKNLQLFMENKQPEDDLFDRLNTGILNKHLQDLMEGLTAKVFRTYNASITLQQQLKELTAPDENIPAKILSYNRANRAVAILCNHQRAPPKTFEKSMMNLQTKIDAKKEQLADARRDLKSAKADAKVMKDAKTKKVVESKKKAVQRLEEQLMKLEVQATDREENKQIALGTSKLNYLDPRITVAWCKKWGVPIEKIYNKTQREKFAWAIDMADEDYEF
Procedure: Topoisomerase I-inhibiting activity was assayed by the method described in Yoshinari, T et al., Cancer Research, vol. 55, page 1310 (1995).
In the table, EC50 means the concentration of a compound needed to inhibit topoisomerase I activity by 50%.

SMILES | EC50
CN1C(=O)c2c(c3c4ccc(O)cc4n([C@@H]4O[C@H](CO)[C@@H](O)[C@H](O)[C@H]4O)c3c3[nH]c4cc(O)ccc4c23)C1=O [Compound [b]] | 0.68 µM
O=C1OC(=O)c2c1c1c3ccc(O)cc3[nH]c1c1c2c2ccc(O)cc2n1C1OC(CO)C(O)C(O)C1O (stereo not shown) [Compound [c]] | 0.18 µM
O=C1OC(=O)c2c1c1c3ccc(OCc4ccccc4)cc3[nH]c1c1c2c2ccc(OCc3ccccc3)cc2n1C1OC(COCc2ccccc2)C(OCc2ccccc2)C(OCc2ccccc2)C1OCc1ccccc1 [Example 1, 12,13-dihydro-2,10-dibenzyloxy-13-(β-D-2,3,4,6-tetra-O-benzylglucopyranosyl)-5H-indolo[2,3-a]carbazole-5,6-dicarboxylic anhydride] | > 1000 µM
O=C1c2c(c3c4ccc(OCc5ccccc5)cc4n(C4OC(COCc5ccccc5)C(OCc5ccccc5)C(OCc5ccccc5)C4OCc4ccccc4)c3c3[nH]c4cc(OCc5ccccc5)ccc4c23)C(=O)N1NC(CO)CO [Example 2, 12,13-dihydro-2,10-dibenzyloxy-6-N-(1-hydroxymethyl-2-hydroxyethylamino)-13-(β-D-2,3,4,6-tetra-O-benzylglucopyranosyl)-5H-indolo[2.3-a]pyrrolo[3,4-c]-carbazole-5,7(6H)-dione] | > 1000 µM
